# Source: patent US9499492B2, “4-(ortho)-fluorophenyl-5-fluoropyrimidin-2-yl amines containing a sulfoximine group” (BAYER PHARMA AKTIENGESELLSCHAFT, priority 2012, dated 2016)
# Assays:
# [1] = target: human carbonic anhydrase-1 (Homo sapiens (Human), UniProt P00915); test: Carbonic anhydrase assay, carbonic anhydrase-1 (Method 4); format: biochemical; settings: read-out: Inhibition of Carbonic anhydrase-1 IC50
# Description: (§1) 4. Carbonic Anhydrase Assay
# (§2) 2 μL of the test compounds, dissolved in DMSO (100-fold final concentration), in a concentration range of 0.03-10 μmol/L (final), was pipetted as quadruplicates into the wells of a 96-hole microtiter plate. Wells that contained the solvent without test compounds were used as reference values (1. Wells without carbonic anhydrase for correction of the non-enzymatic hydrolysis of the substrate, and 2. Wells with carbonic anhydrase for determining the activity of the non-inhibited enzyme).
# (§3) 188 μL of assay buffer (10 mmol/L of Tris/HCl, pH 7.4, 80 mmol/L of NaCl), with or without 3 units/well of carbonic anhydrase-1 [=human carbonic anhydrase-1 (Sigma, #C4396)] in order to determine carbonic anhydrase-1 inhibition or 3 units/well of carbonic anhydrase-2 [=human carbonic anhydrase-2 (Sigma, #C6165)] for measuring carbonic anhydrase-2 inhibition, was pipetted into the wells of the microtiter plate.
# [2] = target: human carbonic anhydrase-2 (Homo sapiens (Human), UniProt P00918); test: Carbonic anhydrase assay, carbonic anhydrase-2 (Method 4); format: biochemical; settings: read-out: Inhibition of Carbonic anhydrase-2 IC50
# Description: as §1
# The principle of the assay is based on the hydrolysis of 4-nitrophenyl acetate by carbonic anhydrases (Pocker & Stone, Biochemistry, 1967, 6, 668), with subsequent photometric determination of the dye product 4-nitrophenolate at 400 nm by means of a 96-channel spectral photometer.
# as §2, §3
# human carbonic anhydrase-1, sequence (P00915 whole entry): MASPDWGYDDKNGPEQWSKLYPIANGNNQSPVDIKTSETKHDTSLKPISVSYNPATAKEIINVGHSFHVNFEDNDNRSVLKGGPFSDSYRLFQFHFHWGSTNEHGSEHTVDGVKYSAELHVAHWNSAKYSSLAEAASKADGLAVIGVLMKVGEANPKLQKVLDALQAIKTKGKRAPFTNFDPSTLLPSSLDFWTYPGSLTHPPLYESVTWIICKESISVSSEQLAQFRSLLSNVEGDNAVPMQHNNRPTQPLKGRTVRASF
Structure (SMILES),IC50 [1] [µM],IC50 [2] [µM]
"CS(=O)(Cc1cc(Nc2ncc(F)c(-c3ccc(F)cc3F)n2)cc(C(F)(F)F)c1)=NC#N (racemic) [Example 1, (rac)-{[3-{[4-(2,4-Difluorophenyl)-5-fluoropyrimidin-2-yl]amino}-5-(trifluoromethyl)benzyl](methyl)oxido-λ^6-sulfanylidene}cyanamide]",> 10,> 10
"CS(=N)(=O)Cc1cc(Nc2ncc(F)c(-c3ccc(F)cc3F)n2)cc(C(F)(F)F)c1 (racemic) [Example 4, (rac)-4-(2,4-Difluorophenyl)-5-fluoro-N-{3-[(S-methylsulfonimidoyl)methyl]-5-(trifluoromethyl)phenyl}pyrimidin-2-amine]",> 10,> 10
"CS(=O)(Cc1cc(Nc2ncc(F)c(-c3ccc(F)cc3F)n2)cc(C(F)(F)F)c1)=NC(N)=O (racemic) [Example 7, (rac)-1-{[3-{[4-(2,4-Difluorophenyl)-5-fluoropyrimidin-2-yl]amino}-5-(trifluoromethyl)benzyl](methyl)oxido-λ^6-sulfanylidene}urea]",> 10,> 10
"CS(=N)(=O)Cc1cc(Cl)cc(Nc2ncc(F)c(-c3ccc(F)cc3F)n2)c1 (racemic) [Example 15, (rac)-N-{3-chloro-5-[(S-methylsulfonimidoyl)methyl]phenyl}-4-(2,4-difluorophenyl)-5-fluoropyrimidin-2-amine]",> 10,> 10
